US20100255580A1, “Differentiation of Human Embryonic Stem Cells” (LIFESCCAN, INC., priority 2007, published 2010)

How the values were obtained:
[1] = test system: human embryonic stem cell line H7; test: FACS analysis of protein expression following activin A treatment, H7; format: cell-based; conditions: AA 100 ng/ml
From the text: (§1) The level of expression of definitive endoderm markers was examined by PCR (FIG. 1), FACS (results summarized in Table II), and immunohistochemistry (FIG. 2).
(§2) CXCR4 positive cells were also highly positive for C-kit, EPCAM, CD99, and negative for CD9. The expression pattern for these markers was consistent among all three hES cell lines examined (Table IIB for H7 and Table IIC for H1). […] In parallel, almost 100% of the differentiated cells were […] (FIG. 2).
(§3) Adhered cells were removed from culture plates by five-minute incubation with TrypLE™ Express solution (Invitrogen, CA). Released cells were resuspended in human embryonic stem cell culture medium and recovered by centrifugation, followed by washing and resuspending the cells in a staining buffer consisting of 2% BSA, 0.05% sodium azide in PBS (Sigma, MO). As appropriate, the cells were Fc-receptor blocked for 15 minutes using a 0.1% γ-globulin (Sigma) solution. […] Controls included appropriate isotype matched antibodies, unstained cells, and cells stained only with secondary conjugated antibody. All incubations with antibodies were performed for 30 mins at 4° C. after which the cells were washed with the staining buffer. Samples that were stained with unconjugated primary antibodies were incubated for an additional 30 mins at 4° C. with secondary conjugated PE or -APC labeled antibodies. See Table I for a list of secondary antibodies used. Washed cells were pelleted and resuspended in the staining buffer, and the cell surface molecules were identified using a FACS Array (BD Biosciences) instrument, collecting at least 10,000 events.

[2] = test system: human embryonic stem cell line H9; test: Immunocytochemistry of endoderm markers, H9; format: cell-based; conditions: activin A for five days
From the text: as §1
(§4) Cells were harvested at the time points indicated in FIG. 3 and assayed by PCR for the expression of genes shown (FIGS. 3, 4 and 5).

H9P44 cells = test: RT-PCR of definitive endoderm markers, growth factor combinations in low serum on MEFs (Example 22); format: cell-based, human; conditions: H9P44 on MEF; Day 3; normalized to Group 1 (control)
Protocol: (§5) Real-time PCR amplification and quantitative analysis.
(§6) Final data were expressed relative to a calibrator sample.
H9P44 cells were plated onto 6 well plates previously coated with mitomycin treated mouse embryonic fibroblasts (MEF). Cells were grown until 70 to 80% confluency in ES cell medium consisting of DMEM/F12 (Invitrogen/GIBCO) supplemented with 20% knockout serum replacement, 100 nM MEM nonessential amino acids, 0.5 mM beta-mercaptoethanol, 2 mM L-glutamine (all from Invitrogen/GIBCO) and 8 ng/ml human basic fibroblast growth factor (bFGF) (R&D Systems).
Growth factors were added to increasing concentration of FBS in a stepwise manner as indicated in the following regimen: • Day 0: 0% FBS in DMEM/F12 • Day 1: 0.5% FBS in DMEM/F12 • Day 2: 2% FBS in DMEM/F12. • Day 3: Cells were harvested for FACS analysis and RT-PCR.
All growth factors were purchased from R&D Systems, MN. A detailed description and concentration of growth factors for each treatment group is shown below.
For RT-PCR analysis, cells were analyzed for expression of selected panel of definitive endoderm markers.

[3] = test system: human embryonic stem cell line H1; test: FACS analysis of protein expression following activin A treatment, H1; format: cell-based; conditions: 5-day AA treatment
From the text: as §1, §2, §3

[4] = test system: human embryonic stem cell line H9; test: FACS analysis of protein expression following activin A treatment, H9 on MEF; format: cell-based; conditions: for CD9 protein expression (FACS) / CXCR4 protein expression (FACS) / ECAM protein expression (FACS) / NCAM protein expression (FACS) / SSEA-3 protein expression (FACS): activin A 100 ng/ml
Protocol: as §1, §3

[5] = test system: human embryonic stem cell line H9; test: Real-time PCR of marker gene expression, H9 on MEF (Examples 2-7); format: cell-based
Protocol: as §4
After this time interval, the cells were then treated for six days with combinations of retinoic acid and FGF as outlined in Example 2, then the culture medium was removed and replaced with medium comprising DMEM/F12 with 2% FBS, containing the γ-secretase inhibitors L-685,458 at 10 μM for three days.
Cells were continuously cultured for another 3 to 5 days in basal medium with retinoic acid at 1 μM, alone or with bFGF. RNA samples were harvested from cells at various time points along this process to help evaluate the directed differentiation of the cells. Furthermore, culture medium and factors were regularly removed and replenished throughout the differentiation protocol.
RNA extraction, purification, and cDNA synthesis. RNA samples were purified by binding to a silica-gel membrane (Rneasy Mini Kit, Qiagen, CA) in the presence of an ethanol-containing, high-salt buffer followed by washing to remove contaminants. The RNA was further purified using a TURBO DNA-free kit (Ambion, INC), and high-quality RNA was then eluted in water. Yield and purity were assessed by A260 and A280 readings on a spectrophotometer. cDNA copies were made from purified RNA using an ABI (ABI, CA) high capacity cDNA archive kit.
as §5, §6

SA002 ES line = test: Real-time PCR and FACS of DE markers, SA002 on […]; format: cell-based, human; conditions: SA002 P38; 20 ng/ml Wnt-3a with 100 ng/ml activin A
From the text: Expression of CXCR4 is depicted in FIG. 45: a) AA treatment b) AA+Wnt-3a c) AA+GSK-3B inhibitor.

H9 embryonic stem cells = test: Immunofluorescence staining of DE markers +/- Wnt-3a (Example 27); format: cell-based, human; conditions: 20 ng/ml Wnt-3a; Day 5 DE cultures
From the text: Day 5 DE cultures of H9 cells were stained according to Example 10 for SOX-17, HNF-3B, GATA-4, N-cadherin, and E-cadherin. All nuclei were counter stained with DAPI.

## Activin A: a member of the TGFβ superfamily; R&D Systems; Group 2 = Activin A (100 ng/ml)
[1]; 1-day
  CXCR4+: 6%
  CXCR4+ C-Kit+: 2.97%
  CXCR4+ CD9+: 8.13%
  CXCR4+ EPCAM+: 14.58%
[1]; 3-day
  CXCR4+: 38%
  CXCR4+ C-Kit+: 31.56%
  CXCR4+ CD9+: 24.11%
  CXCR4+ EPCAM+: 36.67%
[1]; 5-day
  CXCR4+: 65.5%
  CXCR4+ C-Kit+: 55.21%
  CXCR4+ CD9+: 2.1%
  CXCR4+ EPCAM+: 54.5%
[2]
  cells positive for Sox17 and HNF-3beta (immunocytochemistry): 30-40%
  differentiated cells still Oct4 positive (immunocytochemistry): ~100%
H9P44 cells
  CXCR4 relative expression: 19.5
  Goosecoid relative expression: 2.8
  HNF-3B relative expression: 0.64
  Oct-4 relative expression: 1.1
  SOX-2 relative expression: 0.91
  Sox17 relative expression: 45
[3]
  CXCR4+: 92.78%
  CXCR4+/C-kit+: 92.90%
  CXCR4+/CD9+: 7.03%
  CXCR4+/CD99+: 88.78%
  CXCR4+/EPCAM: 87.99%
[4]; 2-DAY
  CD9 protein expression (FACS): 29.42%
  CXCR4 protein expression (FACS): 20.2%
  ECAM protein expression (FACS): 20.87%
  NCAM protein expression (FACS): 5.04%
  SSEA-3 protein expression (FACS): 92.14%
[4]; 5-DAY
  CD9 protein expression (FACS): 7.27%
  CXCR4 protein expression (FACS): 55.26%
  ECAM protein expression (FACS): 14.17%
  NCAM protein expression (FACS): 21.1%
  SSEA-3 protein expression (FACS): 42.9%
[4]; 8-DAY
  CD9 protein expression (FACS): 4.1%
  CXCR4 protein expression (FACS): 56.92%
  ECAM protein expression (FACS): 1.02%
  NCAM protein expression (FACS): 8.86%
  SSEA-3 protein expression (FACS): 22.05%
[4]; following activin A treatment
  expression of E-cadherin and N-cadherin (FACS): did not change
[5]; 50 ng/ml activin A with 50 ng/ml basic FGF and 1 μM Retinoic Acid
  increase of Nkx2.2 expression compared to samples without activin A: about 35 fold
[5]; Activin A 100 ng/ml up to seven days, 0% to 2% serum
  Pdx1 gene expression: no Pdx1 gene expression was observed
[5]; H9, activin A 100 ng/ml
  expression of Brachyury: decreased
  expression of the neuronal marker Zic1: no effect
[5]; H9, activin A 100 ng/ml, one to seven days
  expression of the extraembryonic endoderm markers Sox7 and AFP: time-dependent decrease
[5]; H9, activin A 100 ng/ml, three and five days
  anterior endoderm markers, Cerberus, Otx-1 and Hex genes: significant up regulation
[5]; H9 line, activin A 100 ng/ml, two, five and eight days
  expression of CXCR4, GATA4, HNF-3beta, Mix11 and Sox-17 mRNA: time-dependent increase
[5]; activin A alone or in combination with retinoic acid and FGFs
  expression of Ngn3 or Insulin: did not induce
[5]; activin A or retinoic acid alone
  expression of Pdx1: did not induce

## Wnt-3a
SA002 ES line
  expression of DE markers: robust expression
H9 embryonic stem cells
  expression of N-cadherin: enhanced expression
  expression of e-cadherin: significant loss
  nuclei stained positive for SOX-17, HNF-3beta. and GATA-4: significantly larger number
